Measurements as given in US10220024B2, “Method of inhibiting cancer cell, method for detecting cancer cell, and system for detecting cancer cell” (CANON KABUSHIKI KAISHA, priority 2012, dated 2019).
Like-named read-outs stand apart in the source and are kept apart here.

Experiments:
[1] = Measurement of fluorescent property of compound (spectrofluorometer); type: physicochemical; conditions: 5 μM DMSO solution
Protocol: The excitation wavelength and fluorescence wavelength of the compound were measured by a FL4500 spectrofluorometric measuring machine manufactured by Hitachi High-Technologies Corporation.

[2] = system: Human pancreas cancer cells, KLM-1; assay: Cancer cell inhibitory (growth suppressive) action against pancreatic cancer cells, CellTiter-Glo viable cell count; type: cell-based; conditions: KLM1, KLM-1, 10 μg/mL, 24 hours
Protocol: (§1) Observation on cancer cell inhibitory (growth suppressive) action against pancreatic cancer cells Human pancreas cancer cells, KLM-1, were pre-cultured in RPMI1640 medium containing 10% FBS at 37° C. in a 5% CO2 ambient. Thereafter, 4,000 cells were seeded per well of a 96-well plate and further cultured for 24 hours. Subsequently, Compound (1) was added to the medium so as to obtain a final concentration of 10 μg/mL and cultured at 37° C. for 24 hours in a 5% CO2 ambient. The cultured cells were analyzed for viable cell count according to CellTiter-Glo Luminescent Cell Viability Assay (manufactured by Promega KK.). As a reference, the number of cells cultured in a medium containing a 0.1% dimethylsulfoxide solution (hereinafter, simply referred to as DMSO) in place of a medium containing Compound (1), in the aforementioned operation, was regarded (100%).
Viable cell count was analyzed in the same manner as in Experimental Example 1 except that Compound (1) of Experimental Example 1 was changed to compounds shown in Table 2.
Viable cell count was analyzed in the same manner as in Experimental Example 1 except that Compound (1) was changed to comparative compounds 1 to 4.
Viable cell counts of Experimental Examples 1 to 7 and Comparative Examples 1 to 4 were analyzed to obtain growth rates.
Evaluation of cancer cell inhibition against the pancreatic cancer cells (KLM-1) (growth suppression) was made based on the following criteria. Note that the growth rate in Examples herein is a numerical value of the number of cells obtained after culture relative to the number of cells (regarded as 100) grown in a medium containing 0.1% DMSO. Evaluation of cancer cell inhibition against the pancreatic cancer cells (KLM-1) was made as follows. • A: Cancer cell growth rate is less than 20% (cancer cell inhibitory (growth suppressive) effect is extremely high) • B: Cancer cell growth rate is 20% or more and less than 50% (cancer cell inhibitory (growth suppressive) effect is high) • C: Cancer cell growth rate is 50% or more (cancer cell inhibitory (growth suppressive) effect is low)

[3] = system: K562 ALDH (+) fraction (cancer stem cells); assay: Cancer stem-cell selective inhibitory action against chronic myelocytic leukemia cells, ALDH (+) fraction, CellTiter-Glo; type: cell-based; conditions: Homo sapiens, 24 hours; for activity at 10 µg/mL: 10 μg/ml; for activity at 1 µg/mL: 1 μg/mL
Protocol: (§2) Human chronic myelocytic leukemia cells, K562, were pre-cultured in RPMI1640 medium containing 10% FBS at 37° C. in a 5% CO2 ambient. Then, a fraction containing 80% or more of cancer stem cells was extracted by use of ALDEFLUOR reagent (manufactured by VERITAS Corporation) and FACSAria flow cytometry (manufactured by Nippon Becton, Dickinson and Company). Subsequently, Compound (5) was added to the medium so as to obtain a final concentration of 10 μg/mL and cultured at 37° C. for 24 hours in a 5% CO2 ambient. The cultured cells were analyzed for viable cell count according to CellTiter-Glo Luminescent Cell Viability Assay (manufactured by Promega KK.). As a reference, the number of cells cultured in a medium containing a 0.1% dimethylsulfoxide solution (hereinafter, simply referred to as DMSO) in place of a medium containing Compound (1), in the aforementioned operation, was used as 0.1. Note that hereinafter, an ALDEFLUOR reagent positive fraction (deemed as cancer stem cells) is represented by ALDH (+), whereas an ALDEFLUOR reagent negative fraction (not deemed as cancer stem cells) is represented by ALDH (−), in some cases.
(§3) The same operation as in Experimental Example 12 was repeated except that Compound (5) in Experimental Example 12 was changed to the compounds shown in Table 4 and final concentrations shown in Table 4 were used and viable cell counts were separately analyzed. Note that the growth rate in Examples herein is a numerical value of the number of cells obtained after culture relative to the number of cells (regarded as 0.1) grown in a medium containing 0.1% DMSO.
(§4) The same operation as in Experimental Example 12 was repeated except that Compound (5) in Experimental Example 12 was changed to Imatinib (manufactured by NOVARTIS), which is a general anticancer drug, and comparative compounds shown in Table 4 and final concentrations shown in Table 4 were used and viable cell counts were separately analyzed.
(§5) The growth suppressive effect of cancer stem cells was evaluated based on the following criteria. Note that the growth rate in Examples herein is a numerical value relative to the number of cells (regarded as 0.1) grown in a medium containing 0.1% DMSO. • A: The value of ALDH (+) is less than 0.5 (growth suppressive effect against cancer stem cells is extremely high) • B: The value of ALDH (+) is 0.5 or more and less than 0.95 (growth suppressive effect against cancer stem cells is high) • C: The value of ALDH (+) is 0.95 or more (no growth suppressive effect against cancer stem cells)
(§6) Furthermore, superiority of cancer stem cells was evaluated by comparing cancer stem cells to cancer cells based on the following criteria. ALDH (+) represents cancer stem cells; whereas ALDH (−) represents general cancer cells. • A: The value of ALDH (+)/ALDH (−) is less than 0.8 (selective inhibitory effect against cancer stem cells is extremely high) • B: The value of ALDH (+)/ALDH (−) is 0.8 or more and less than 0.95 (selective inhibitory effect against cancer stem cells is high) • C: The value of ALDH (+)/ALDH (−) is 0.95 or more (no selective inhibitory effect against cancer stem cells)

[4] = system: K562 ALDH (−) fraction (general cancer cells); assay: Cancer stem-cell selective inhibitory action against chronic myelocytic leukemia cells, ALDH (−) fraction, CellTiter-Glo; type: cell-based, Human; conditions: Homo sapiens, 24 hours, relative to 0.1% DMSO, read-out: ALDH(−) (growth rate); for activity at 10 µg/mL: 10 μg/ml; for activity at 1 µg/mL: 1 μg/mL
Protocol: as §2, §3, §4, §5, §6

[5] = system: Prostatic cancer cells, PC-3; assay: Cancer cell inhibitory (growth suppressive) action against prostatic cancer cells, CellTiter-Glo viable cell count; type: cell-based; conditions: PC-3, 10 μg/mL, 24 hours
Protocol: as §1, with “Prostatic” for “Observation on cancer cell inhibitory (growth suppressive) action against pancreatic cancer cells Human pancreas”, “PC-3,” for “KLM-1,”, “(11)” for “(1)”, “(11),” for “(1),”, “used as 100.” for “regarded (100%).”
Viable cell count was analyzed in the same manner as in Experimental Example 8 except that the compounds shown in Table 3 were used in place of Compound (11) of Experimental Example 8.
Viable cell count was analyzed in the same manner as in Experimental Example 8 except that comparative compounds 1 to 4 were used in place of Compound (11) of Experimental Example 8.
The growth rate in Examples herein is a numerical value of the number of cells obtained after culture relative to the number of cells (regarded as 100) grown in a medium containing 0.1% DMSO.
Evaluation of cancer cell inhibition against the prostatic cancer cells (PC-3) was made as follows. • A: Cancer cell growth rate is less than 20% (cancer cell inhibitory (growth suppressive) effect is extremely high) • B: Cancer cell growth rate is 20% or more and less than 50% (cancer cell inhibitory (growth suppressive) effect is high) • C: Cancer cell growth rate is 50% or more (cancer cell inhibitory (growth suppressive) effect is low)

[6] = read-out: Evaluation (cancer cell growth rate)
[7] = relative to 0.1% DMSO (100), read-out: Cancer cell growth rate (%)
[8] = read-out: Growth suppression evaluated
[9] = relative to 0.1% DMSO, read-out: ALDH(+) (growth rate)

SMILES | Excitation wavelength λex [1] [nm] | Fluorescence wavelength λem [1] [nm] | activity at 10 µg/mL [2, 6] [%] | activity at 10 µg/mL [2, 7] [%] | activity at 10 µg/mL [3, 8] [%] | activity at 10 µg/mL [3, 9] [%] | activity at 10 µg/mL [4] [%] | activity at 10 µg/mL [5, 6] [%] | activity at 10 µg/mL [5, 7] [%] | activity at 1 µg/mL [3, 8] [%] | activity at 1 µg/mL [3, 9] [%] | activity at 1 µg/mL [4] [%]
CCN1c2ccc(/C=C/C3=[N+](CC)c4ccc(OC)cc4C34CCCCC4)cc2C2CCCC21 (stereo not shown) [Compound 8] | 586 | 623 | 20 to 50 | 24.3 | < 50 | 23 | 32 |  |  |  |  | 
CCC[N+]1=C(/C=C/C=C/c2ccc(N(C)C)cc2)C(C)(C)c2ccccc21 [Compound 26] | 609 | 692 | < 20 | 8.9 |  |  |  | < 20 | 5.8 |  |  | 
COc1ccc(N2c3ccc(/C=C/c4sc5ccccc5[n+]4CC(=O)O)cc3C3CCCC32)cc1 (stereo not shown) [Compound 33] | 560 | 677 |  |  | 50 to 95 | 90 | 101 |  |  |  |  | 
COc1ccc(N2c3ccc(/C=C/C4=[N+](CCC(=O)O)c5ccccc5C4(C)C)cc3C3CCCC32)cc1 (stereo not shown) [Compound 32] | 592 | 671 |  |  | 50 to 95 | 78 | 90 |  |  |  |  | 
CCN1c2ccc(/C=C/C3=[N+](C)c4ccccc4C3(C)C)cc2C2CCCC21 (stereo not shown) [Compound 34] | 575 | 611 |  |  | < 50 | 17 | 24 |  |  |  |  | 
CCn1c2ccccc2c2cc(/C=C/C3=[N+](C)c4ccc5ccccc5c4C3(C)C)ccc21 [Compound 40] |  |  |  |  | < 50 | 6 | 13 |  |  | 50 to 95 | 73 | 85
CC1(C)C(/C=C/c2ccc3c(c2)C2CCCC2N3c2ccc(C=C(c3ccccc3)c3ccccc3)cc2)=[N+](CCC(=O)O)c2ccccc21 (stereo not shown) [Compound 31] | 611 | 720 |  |  |  |  |  |  |  |  |  | 
COc1ccc(N2c3ccc(/C=C4/SC(=S)N(CCC(=O)O)C4=O)cc3C3CCCC32)cc1 (stereo not shown) [compound 3, reference compound] |  |  | ≥ 50 | 95 |  |  |  | ≥ 50 | 86.5 |  |  | 
CCN1c2ccc(/C=C/C3=[N+](C)c4ccc5ccccc5c4C3(C)C)cc2C2CCCC21 (stereo not shown) [Compound 39] | 591 | 626 |  |  | < 50 | 6 | 13 |  |  |  |  | 
COc1ccc(N2c3ccc(/C=C/C4=[N+](C)c5ccccc5C4(C)C)cc3C3CCCC32)cc1 (stereo not shown) [Compound 38] | 573 | 670 |  |  | < 50 | 5 | 11 |  |  |  |  | 
O=C(O)Cn1c(=O)/c(=C\c2ccc3c(c2)C2CCCC2N3c2ccccc2)s/c1=C1/SC(=S)N(Cc2ccccc2)C1=O (stereo not shown) [compound 5, reference compound] |  |  |  |  | ≥ 95 | 107 | 90 |  |  | ≥ 95 | 106 | 97
CCn1c2ccccc2c2cc(/C=C/C3=[N+](C)c4ccccc4C3(C)C)ccc21 [Compound 36] | 488 | 594 |  |  | < 50 | 13 | 20 |  |  |  |  | 
CCN1C(=O)/C(=c2\s/c(=C/c3ccc4c(c3)c3ccccc3n4CC)c(=O)n2CC(=O)O)SC1=S [compound 1, reference compound] |  |  | ≥ 50 | 99 |  |  |  | ≥ 50 | 104 |  |  | 
CCn1c2ccccc2c2cc(/C=C3/SC(=S)N(CC(=O)O)C3=O)ccc21 [compound 4, reference compound] |  |  | ≥ 50 | 100 |  |  |  | ≥ 50 | 99.9 |  |  | 
CCOC(=O)Cn1c(=O)/c(=C\c2ccc3c(c2)C2CCCC2N3c2ccccc2)s/c1=C1/SC(=S)N(CC)C1=O (stereo not shown) [compound 2, reference compound] |  |  | ≥ 50 | 91 |  |  |  | ≥ 50 | 88.8 |  |  | 
